Data published in patent US10869844B2, “Methods for the treatment of depression” (Janssen Pharmaceutica NV, priority 2014, dated 2020).
Where two headings read alike, the source gives them in different places.

System: adult subjects with TRD
[1] = Met carriers, Day 18 after Day 17, all responders (Day 17)
[2] = Met carriers, Day 18 after Day 17, esketamine responders (Day 17) per Day 1 randomization
[3] = Val/Val (of 7), esketamine subjects per Day 1 randomization, 18 days after last dose
[4] = Val/Val, DAY 02, randomized to esketamine Day 1
[5] = Val/Val, DAY 07, randomized to esketamine Day 1
[6] = Val/Val, DAY 07, randomized to placebo Day 1, esketamine from day 4 onward
[7] = Val/Val, DAY 17, randomized to esketamine Day 1
[8] = Val/Val, DAY 17, randomized to placebo Day 1, esketamine from day 4 onward
[9] = Val/Val, DAY 35, randomized to esketamine Day 1
[10] = Val/Val, DAY 35, randomized to placebo Day 1, esketamine from day 4 onward
[11] = Val/Val, Day 0 after Day 17, all responders (Day 17)
[12] = Val/Val, Day 0 after Day 17, esketamine responders (Day 17) per Day 1 randomization
[13] = Val/Val, Day 11 after Day 17, all responders (Day 17)
[14] = esketamine subjects, Days 2, 7, 17 and 35

CN[C@]1(c2ccccc2Cl)CCCCC1=O.Cl [Esketamine, (S)-2-(2-chlorophenyl)-2-(methylamino)cyclohexanone hydrochloride]
Duration of response, survival function estimate: Failure [1]: 0.5714
Duration of response, survival function estimate: Survival [1]: 0.4286
Duration of response, survival function estimate: Failure [2]: 0.6667
Duration of response, survival function estimate: Survival [2]: 0.3333
Day 17 responders who maintained response status up to Day 35, % [3]: 100%
Day 17 responders who maintained response status up to Day 35, number [3]: 7
Non-remitters % [4]: 37.5%
Non-remitters No. [4]: 3
Non-responders % [4]: 25.0%
Non-responders No. [4]: 2
Remitters % (MADRS total score 10) [4]: 62.5%
Remitters No. (MADRS total score 10) [4]: 5
Responders % (MADRS total score reduction >50%) [4]: 75.0%
Responders No. (MADRS total score reduction >50%) [4]: 6
Non-remitters % [5]: 25.0%
Non-remitters No. [5]: 2
Non-responders % [5]: 25.0%
Non-responders No. [5]: 2
Remitters % (MADRS total score 10) [5]: 75.0%
Remitters No. (MADRS total score 10) [5]: 6
Responders % (MADRS total score reduction >50%) [5]: 75.0%
Responders No. (MADRS total score reduction >50%) [5]: 6
Non-remitters % [6]: 42.9%
Non-remitters No. [6]: 3
Non-responders % [6]: 28.6%
Non-responders No. [6]: 2
Remitters % (MADRS total score 10) [6]: 57.1%
Remitters No. (MADRS total score 10) [6]: 4
Responders % (MADRS total score reduction >50%) [6]: 71.4%
Responders No. (MADRS total score reduction >50%) [6]: 5
Non-remitters % [7]: 12.5%
Non-remitters No. [7]: 1
Non-responders % [7]: 12.5%
Non-responders No. [7]: 1
Remitters % (MADRS total score 10) [7]: 87.5%
Remitters No. (MADRS total score 10) [7]: 7
Responders % (MADRS total score reduction >50%) [7]: 87.5%
Responders No. (MADRS total score reduction >50%) [7]: 7
Non-remitters % [8]: 57.1%
Non-remitters No. [8]: 4
Non-responders % [8]: 28.6%
Non-responders No. [8]: 2
Remitters % (MADRS total score 10) [8]: 42.9%
Remitters No. (MADRS total score 10) [8]: 3
Responders % (MADRS total score reduction >50%) [8]: 71.4%
Responders No. (MADRS total score reduction >50%) [8]: 5
Non-remitters % [9]: 12.5%
Non-remitters No. [9]: 1
Non-responders % [9]: 12.5%
Non-responders No. [9]: 1
Remitters % (MADRS total score 10) [9]: 87.5%
Remitters No. (MADRS total score 10) [9]: 7
Responders % (MADRS total score reduction >50%) [9]: 87.5%
Responders No. (MADRS total score reduction >50%) [9]: 7
Non-remitters % [10]: 42.9%
Non-remitters No. [10]: 3
Non-responders % [10]: 42.9%
Non-responders No. [10]: 3
Remitters % (MADRS total score 10) [10]: 57.1%
Remitters No. (MADRS total score 10) [10]: 4
Responders % (MADRS total score reduction >50%) [10]: 57.1%
Responders No. (MADRS total score reduction >50%) [10]: 4
Duration of response, survival function estimate: Failure [11]: 0
Duration of response, survival function estimate: Survival [11]: 1.0000
Duration of response, survival function estimate: Failure [12]: 0
Duration of response, survival function estimate: Survival [12]: 1.0000
Duration of response, survival function estimate: Failure [13]: 0.0833
Duration of response, survival function estimate: Survival [13]: 0.9167
Subjects who remain well, number (Val/Val, by Day 35, of 7): 7
Responders on Day 17, number (all esketamine subjects per Day 1 randomization (Val/Val and Met carriers)): 13
Remit rates, Val/Val vs Met carriers [14]: remit rates were higher in Val/Val subjects than in Met carriers at all timepoints
Response rates, Val/Val vs Met carriers [14]: response rates were higher in Val/Val subjects than in Met carriers
